# US12662451B2, “Chemical compounds and uses thereof” (GLAXOSMITHKLINE INTELLECTUAL PROPERTY (NO.4) LIMITED, priority 2023, dated 2026)
# Where a name gives a salt, the structure may show the parent alone. Read-outs that look alike come from different tables or passages of the source.
# Experiments:
# [1] = system: SW48 human colorectal cancer cells (MSI-H cancer cells); assay: SW48 cell viability, CellTiter-Glo, 120 hours (Example B); settings: Homo sapiens
# [2] = system: SW48 human colorectal cancer cells; assay: Calculated free drug potency in SW48 cell assay, corrected with media free fraction (Example C); assay type: cell-based; settings: Homo sapiens, SW48, SW48 pCC50 corrected with measured free fraction in cell assay media
# Procedure: (§1) It was observed that the compounds of the present disclosure are bound to cell assay media to various degrees, which would affect the cellular potency analysis in Example B. To measure free drug potency, concentrations used in the cell assays were corrected with the measured free fraction determined in the cell assay media. Compounds were incubated in a rapid equilibrium dialysis (RED) at a nominal concentration of 1 μM, using a dialysis buffer of phosphate-buffered saline (PBS, 100 mM sodium phosphate+150 mM sodium chloride, pH 7.4). The test compound was spiked into the medium. Aliquots were added to the donor wells of a RED plate in triplicate, and blank PBS was added to each receiver well, at volumes recommended by the manufacturer. Plates were incubated with shaking at 200 rpm for 4 hours at 37° C. The resultant samples were analysed by LC-MS/MS using a specific and sensitive method. Results were reported as analyte:internal standard peak area ratios (PARs), and the percent unbound was calculated with the following equation:
# (§2) [formula] where Cfinal=PAR in the T=240 minute sample; Cinitial=PAR in the T=0 minute sample. Cell culture media unbound percentage and calculated free drug potency of selected compounds along with their measured potency from Example B are shown in Table 3.
# [3] = Cell culture media unbound percentage and stability by rapid equilibrium dialysis (Example C); assay type: in vitro ADME; settings: bovine, cell assay medium (RPMI-1640 with 10% fetal bovine serum), pH 7.4, rapid equilibrium dialysis, 4 hours at 37° C., read-out: Cell Culture Media Binding (% unbound)
# Procedure: as §1
# [formula] where D=the matrix dilution factor (D=1 for media); Apparent Fu=Crec/Cdon; Crec=PAR in receiver samples; Cdon=PAR in donor samples. Percent stability was calculated by:
# as §2
# [4] = biological target: T1, recombinant full-length WRN protein (1-1432) (Homo sapiens, UniProt Q14191); assay: WRN unwinding activity, fluorogenic 384-well assay (Example A); assay type: biochemical; settings: WRN unwinding activity, 4 hr; Table 2; read-out: 4 hr UNW pIC50 (converted)
# T1 construct: recombinant full-length WRN protein (1-1432)
# T1 sequence (Q14191 whole entry): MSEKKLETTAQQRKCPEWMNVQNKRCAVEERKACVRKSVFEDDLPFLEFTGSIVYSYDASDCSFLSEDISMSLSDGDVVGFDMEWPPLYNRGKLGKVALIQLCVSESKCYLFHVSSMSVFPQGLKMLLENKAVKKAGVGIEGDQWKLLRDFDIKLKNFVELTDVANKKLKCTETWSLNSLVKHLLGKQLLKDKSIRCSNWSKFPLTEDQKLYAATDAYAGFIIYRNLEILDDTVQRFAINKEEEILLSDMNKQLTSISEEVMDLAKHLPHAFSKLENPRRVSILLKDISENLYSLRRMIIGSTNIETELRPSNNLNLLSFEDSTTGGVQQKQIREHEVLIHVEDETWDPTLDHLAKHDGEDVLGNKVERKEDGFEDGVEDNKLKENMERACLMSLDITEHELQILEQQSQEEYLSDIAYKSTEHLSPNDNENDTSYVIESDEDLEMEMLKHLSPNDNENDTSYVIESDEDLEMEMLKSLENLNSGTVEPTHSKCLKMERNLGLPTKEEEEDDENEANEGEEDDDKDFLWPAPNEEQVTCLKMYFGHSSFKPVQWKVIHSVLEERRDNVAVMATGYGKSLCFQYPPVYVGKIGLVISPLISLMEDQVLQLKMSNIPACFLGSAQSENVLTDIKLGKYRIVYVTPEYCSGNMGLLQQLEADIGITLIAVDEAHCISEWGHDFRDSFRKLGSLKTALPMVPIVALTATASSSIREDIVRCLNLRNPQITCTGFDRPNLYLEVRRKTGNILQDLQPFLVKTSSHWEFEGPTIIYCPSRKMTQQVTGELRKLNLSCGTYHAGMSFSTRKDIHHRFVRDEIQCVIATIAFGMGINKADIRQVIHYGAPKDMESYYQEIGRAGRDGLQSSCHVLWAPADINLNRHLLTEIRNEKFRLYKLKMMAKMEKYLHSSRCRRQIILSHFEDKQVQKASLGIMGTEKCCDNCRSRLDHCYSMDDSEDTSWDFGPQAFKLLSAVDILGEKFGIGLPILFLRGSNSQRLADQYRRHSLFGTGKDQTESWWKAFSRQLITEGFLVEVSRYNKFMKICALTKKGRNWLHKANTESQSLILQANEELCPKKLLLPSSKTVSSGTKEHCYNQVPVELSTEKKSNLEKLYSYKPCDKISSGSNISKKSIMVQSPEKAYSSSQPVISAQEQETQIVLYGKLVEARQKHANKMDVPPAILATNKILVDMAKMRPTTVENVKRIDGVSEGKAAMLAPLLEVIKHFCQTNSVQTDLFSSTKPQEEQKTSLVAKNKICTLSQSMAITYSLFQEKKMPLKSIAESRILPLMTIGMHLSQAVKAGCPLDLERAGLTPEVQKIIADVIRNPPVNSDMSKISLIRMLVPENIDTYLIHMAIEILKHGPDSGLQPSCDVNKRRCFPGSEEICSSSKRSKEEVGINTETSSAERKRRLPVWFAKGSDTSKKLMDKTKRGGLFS
# Summary of the method: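 200 pM enzyme (2× stock) preincubated with compound 4 h at ambient temperature, then 200 μM ATP and 12 nM quenched TAMRA-labelled dsDNA (2× stocks) added for 60 min; EDTA-quenched. Buffer 25 mM Tris pH 8.0, 5 mM NaCl, 2 mM MgCl2. Fluorescence at 525/598 nm; pIC50 from four-parameter fit.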
# [5] = SW48, 120 h, read-out: SW48 pCC50, SW48 cell viability, 120 hours incubation (converted), Table 2
# [6] = SW48, read-out: SW48 pCC50, measured potency from Example B, as repeated in Table 3 (converted)
Compound,"fraction unbound at 4 h, 1 µM [3]",IC50 [4],"CC50 [1, 5]","CC50 [1, 6]",CC50 [2]
"Cc1nc2cc(S(=O)(=O)N(C)c3ccc([C@@H]4C[C@H](N5CC[C@H](F)C5)C[C@H](C(=O)Nc5ccc(C(F)(F)F)cc5F)[C@H]4C(=O)O)cc3)ccc2n1C (stereo in doubt) [Example 378, rel-(1R*,2R*,4R*,6S*)-2-((2-fluoro-4-(trifluoromethyl)phenyl)carbamoyl)-4-((S)-3-fluoropyrrolidin-1-yl)-6-(4-((N,1,2-trimethyl-1H-benzo[d]imidazole)-5-sulfonamido)phenyl)cyclohexane-1-carboxylic acid]",0.208,50.1 nM,3.98 µM,3.98 µM,832 nM
"Cc1nc2cc(S(=O)(=O)N(C)c3ccc([C@@H]4C[C@H](N5CC[C@@H](F)C5)C[C@H](C(=O)Nc5ccc(C(F)(F)F)cc5F)[C@H]4C(=O)O)cc3)ccc2n1C (stereo in doubt) [Example 381, rel-(1R*,2R*,4R*,6S*)-2-((2-fluoro-4-(trifluoromethyl)phenyl)carbamoyl)-4-((R)-3-fluoropyrrolidin-1-yl)-6-(4-((N,1,2-trimethyl-1H-benzo[d]imidazole)-5-sulfonamido)phenyl)cyclohexane-1-carboxylic acid]",0.308,79.4 nM,7.94 µM,7.94 µM,2450 nM
"Cc1nc2cc(S(=O)(=O)N(C)c3ccc([C@H]4CC[C@@H](C)[C@@H](C(=O)Nc5ccc(C(F)(F)F)cc5F)[C@@H]4C(=O)O)cc3)ccc2n1C (relative stereo) [Example 235, rel-(1R,2R,3R,6S)-2-((2-fluoro-4-(trifluoromethyl)phenyl)carbamoyl)-3-methyl-6-(4-((N,1,2-trimethyl-1H-benzo[d]imidazole)-5-sulfonamido)phenyl)cyclohexane-1-carboxylic acid]",0.0332,2 nM,0.251 µM,0.251 µM,8.32 nM
"CC(=O)N(C)[C@H]1C[C@H](c2ccc(N(C)S(=O)(=O)c3ccc4c(c3)nc(C)n4C)cc2)[C@@H](C(=O)O)[C@H](C(=O)Nc2ccc(C(F)(F)F)cc2F)C1 (stereo in doubt) [Example 294, rel-(1R,2R,4S,6S)-2-((2-fluoro-4-(trifluoromethyl)phenyl)carbamoyl)-4-(N-methylacetamido)-6-(4-((N,1,2-trimethyl-1H-benzo[d]imidazole)-5-sulfonamido)phenyl)cyclohexane-1-carboxylic acid]",0.256,1.58 nM,6.31 µM,6.31 µM,1620 nM
"Cc1nc2cc(S(=O)(=O)N(C)c3ccc([C@H]4CCC[C@@H](COc5ccc(C(F)(F)F)cc5)[C@@H]4C(=O)O)cc3)ccc2n1CCN(C)C [Example 219, (1R,2S,6R)-2-(4-((1-(2-(dimethylamino)ethyl)-N,2-dimethyl-1H-benzo[d]imidazole)-5-sulfonamido)phenyl)-6-((4-(trifluoromethyl)phenoxy)methyl)cyclohexane-1-carboxylic acid]",0.0031,5.01 nM,6.31 µM,6.31 µM,19.5 nM
"Cc1nc2cc(S(=O)(=O)N(C)c3ccc([C@@H]4CCC[C@H](COc5ccc(C(F)(F)F)cc5)[C@H]4C(=O)O)cc3)cc([C@@H]3CCCN(C)C3)c2n1C (single isomer, unassigned) [Example 211, formic acid salt]",0.0208,2 nM,3.16 µM,3.16 µM,66.1 nM

# Further lines, with some results ahead:
"fraction unbound at 4 h, 1 µM [3]",IC50 [4],Compound,"CC50 [1, 5]","CC50 [1, 6]",CC50 [2]
0.112,3.98 nM,"Cc1nc2cc(S(=O)(=O)N(C)c3ccc([C@H]4C[C@@H](OC[C@@H]5CCOC5)C[C@@H](C(=O)Nc5ccc(C(F)(F)F)cc5F)[C@@H]4C(=O)O)cc3)ccc2n1C (stereo in doubt) [Example 320, (1R*,2R*,4R*,6S*)-2-((2-fluoro-4-(trifluoromethyl)phenyl)carbamoyl)-4-(((R)-tetrahydrofuran-3-yl)methoxy)-6-(4-((N,1,2-trimethyl-1H-benzo[d]imidazole)-5-sulfonamido)phenyl)cyclohexane-1-carboxylic acid]",0.0794 µM,0.0794 µM,8.91 nM
0.237,1.58 nM,"Cc1nc2cc(S(=O)(=O)N(C)c3ccc([C@H]4CCC[C@@H](C(=O)N[C@H]5CC[C@H](C(F)(F)F)CC5)[C@@H]4C(=O)O)cc3)ccc2n1C [Example 177, (1R,2R,6S)-2-(((1r,4R)-4-(trifluoromethyl)cyclohexyl)carbamoyl)-6-(4-((N,1,2-trimethyl-1H-benzo[d]imidazole)-5-sulfonamido)phenyl)cyclohexane-1-carboxylic acid]",1.58 µM,1.58 µM,372 nM
0.549,31.6 nM,"CN(c1ccc([C@H]2CCC[C@@H](C(=O)Nc3ccc(C(F)(F)F)cc3F)[C@@H]2C(=O)O)cc1)S(C)(=O)=O [Example 285, (1R,2R,6S)-2-((2-fluoro-4-(trifluoromethyl)phenyl)carbamoyl)-6-(4-(N-methylmethylsulfonamido)phenyl) cyclohexane-1-carboxylic acid]",6.31 µM,6.31 µM,3470 nM
0.101,2.51 nM,"CCO[C@@H]1C[C@H](c2ccc(N(C)S(=O)(=O)c3ccc4c(c3)ncn4C)cc2)[C@@H](C(=O)O)[C@H](C(=O)Nc2ccc(C(F)(F)F)cc2F)C1 [Example 140, (1R,2S,4R,6R)-2-(4-((N,1-dimethyl-1H-benzo[d]imidazole)-5-sulfonamido)phenyl)-4-ethoxy-6-((2-fluoro-4-(trifluoromethyl)phenyl)carbamoyl)cyclohexane-1-carboxylic acid]",0.158 µM,0.158 µM,15.8 nM
0.049,20 nM,"Cc1nc2cc(S(=O)(=O)N(C)c3ccc([C@H]4C[C@H](N5CC6(F)CC5C6)C[C@@H](C(=O)Nc5ccc(C(F)(F)F)cc5F)[C@@H]4C(=O)O)cc3)ccc2n1C (relative stereo) [Example 400, rel-(1R,2R,4S,6S)-2-((2-fluoro-4-(trifluoromethyl)phenyl)carbamoyl)-4-(4-fluoro-2-azabicyclo[2.1.1]hexan-2-yl)-6-(4-((N,1,2-trimethyl-1H-benzo[d]imidazole)-5-sulfonamido)phenyl)cyclohexane-1-carboxylic acid]",7.94 µM,7.94 µM,389 nM
0.0083,2 nM,CN(C)CCc1nc2cc(S(=O)(=O)N(C)c3ccc([C@H]4CCC[C@@H](COc5ccc(C(F)(F)F)cc5)[C@@H]4C(=O)O)cc3)ccc2n1C [Example 275],5.01 µM,5.01 µM,41.7 nM
0.205,1.58 nM,"Cc1nc2cc(S(=O)(=O)N(C)c3ccc([C@H]4C[C@@H](OC[C@@H]5COCCO5)C[C@@H](C(=O)Nc5ccc(C(F)(F)F)cc5F)[C@@H]4C(=O)O)cc3)ccc2n1C (stereo in doubt) [Example 329, (1R*,2R*,4R*,6S*)-4-(((S)-1,4-dioxan-2-yl)methoxy)-2-((2-fluoro-4-(trifluoromethyl)phenyl)carbamoyl)-6-(4-((N,1,2-trimethyl-1H-benzo[d]imidazole)-5-sulfonamido)phenyl)cyclohexane-1-carboxylic acid]",0.0631 µM,0.0631 µM,12.9 nM
0.0233,3.16 nM,"CCCO[C@@H]1C[C@H](c2ccc(N(C)S(=O)(=O)c3ccc4c(c3)nc(C)n4C)cc2)[C@@H](C(=O)O)[C@H](C(=O)Nc2ccc(C(F)(F)F)cc2F)C1 (stereo in doubt) [Example 151, rel-(1R,2R,4R,6S)-2-((2-fluoro-4-(trifluoromethyl)phenyl)carbamoyl)-4-propoxy-6-(4-((N,1,2-trimethyl-1H-benzo[d]imidazole)-5-sulfonamido)phenyl)cyclohexane-1-carboxylic acid]",0.501 µM,0.501 µM,11.7 nM
